{"source": "patent US8399422B2", "about": "“Compositions for transfection of oligonucleotides active for gene silencing and their biological and therapeutical applications” (Polyplus-Transfection, priority 2006, dated 2013)", "key": {"[1]": {"test_system": "luciferase gene (pGL3) stably expressed by A549-GL3Luc cells", "assay": "Luciferase gene (pGL3) silencing by GL3Luc siRNA transfection of A549-GL3Luc cells", "type": "cell-based, human", "conditions": "48 h", "description": "A549 (human lung carcinoma, ATCC No CCL-185) cells stably expressing the GL3 luciferase (Photinus pyralis luciferase under the control of SV40 elements) were obtained after stable transfection of pGL3Luc plasmid (Clontech). A549-GL3Luc cells were grown in RPMI-1640 and supplemented with 10% fetal bovine serum, 2 mM glutamax, 100 units/ml penicillin, 100 μg/ml streptomycin and 0.8 μg/ml G418 (Promega). All the cells were maintained at 37° C. in a 5% CO2 humidified atmosphere.\nOne day before transfection, 2.5×10^4 cells were seeded in 24-well tissue culture plate in 1 ml fresh complete medium containing 10% FBS. Before transfection, complexes of siRNA/transfection reagent were prepared. The desired amount of siRNAs was diluted in 100 μl of serum-free medium. The solution was mixed with a Vortex for 10 seconds. Then, 0.5 μl to 3 μl of amphiphilic molecules-based formulations were added to siRNA solution. The final mixture was mixed with a Vortex for 10 seconds, and left for 10 minutes at room temperature. Then, 100 μl of complexes solution were added per well and the plates were incubated at 37° C. […]\nFor all transfection protocols, the plates were further incubated at 37° C. for 48 h.\nLuciferase gene expression was measured using a commercial kit (Promega, France). After removing the complete medium, three washings with 1 ml of PBS solution were made. Then, 100 μl of 1× lysis buffer were added per well, and the plate was incubated at room temperature for 30 minutes. The lysates were collected and centrifuged at 14,000 g for 5 minutes. The luciferase assay was assessed with 5 μl of lysate after injection of 100 μl of luciferin solution. The luminescence (RLU) was monitored with an integration over 10 seconds with a luminometer (LB960, Berthold, France). Results are expressed as light units integrated over 10 seconds (RLU), per mg of cell protein using the BCA assay (Pierce, France).\nAs a target model of endogenous reporter gene, A549 cells stably expressing the GL3 luciferase were used (Photinus pyralis luciferase under the control of SV40 elements). A well defined and conventional siRNA, chemically produced, and sequence-specific GL3Luc siRNA of SEQ ID No 1 and 2 composed of a short dsRNA of 19 nucleotides matching the GL3Luc mRNA and comprising 3′-overhangs of 2 deoxyribonucleotides (dT) was used for the transfection experiments. A formulation of cationic amphiphile MONI at 1 mM and combined with neutral phospholipid DOPE at 1 mM in ethanol was prepared. SiRNA diluted in serum-free medium (100 μl) was then complexed with 2 μl of the formulation of MONI/DOPE (1 mM/1 mM in ethanol). The resulting solution of transfection complexes was added on the cells growing in medium containing serum and cells were finally exposed to siRNA concentration range from 100 to 2000 pM (FIG. 1). The silencing efficiency was determined 48 h post-transfection by measuring the luciferase activity with a standard luminescence assay normalized by the protein content of cell lysates. The luciferase activity (expressed as RLU/mg of protein) was inhibited up to 90% when the transfection was performed with 2000 pM of siRNA.\nFormulations composed of amphiphilic cationic molecule/DOPE (1 mM/2 mM in 10% ethanol and water) were used to complex siRNA and transfect A549-GL3Luc cells. Luciferase gene expression was measured after 48 h incubation period. Experiments were made in triplicates and the GL3 luciferase silencing efficiency was calculated from the luciferase level of transfected cells with a control GL2-Luc siRNA and normalized by the content of protein in the cell lysates."}, "[2]": {"test_system": "luciferase gene (pGL3) stably expressed by A549-GL3Luc cells", "assay": "Reverse transfection in 96-well plate, luciferase silencing in A549-GL3Luc cells", "type": "cell-based, human", "conditions": "transfected with liposomal MONI/DOPE (½ mM), 48 h", "description": "GL3Luc siRNA diluted in 50 μl of serum free medium were complexed (in 96-well tissue culture plate format, n=6) for 5 minutes with 1 μl of formulation composed of MONI/DOPE in water (1 mM/2 mM). Then, 10,000 A549-GL3Luc cells, stably expressing the luciferase gene, in 125 μl of medium containing serum were added per well. Luciferase gene expression was measured after 48 h incubation period. As unspecific siRNA control, siRNA matching the GL2 luciferase sequence were transfected in the same conditions. Luciferase gene expression was measured after 48 h incubation period and the luciferase activity was expressed as Relative Light Unit (RLU) normalized by the content of protein in the cell lysates (mg of protein). GL3 luciferase silencing efficiency (FIG. 3B) was calculated from the endogenous luciferase level of untransfected A549-GL3Luc cells normalized by the content of protein in the cell lysates.\nComplexes of siRNA/transfection reagent were prepared first. […]\nLuciferase gene expression was measured using a commercial kit (Promega, France). […] The luciferase assay was assessed with 5 μl of lysate after injection of 100 μl of luciferin solution. The luminescence (RLU) was monitored with an integration over 10 seconds with a luminometer (LB960, Berthold, France). Results are expressed as light units integrated over 10 seconds (RLU), per mg of cell protein using the BCA assay (Pierce, France). […]"}}, "data": [{"substance": "GL2Luc siRNA: siRNA duplex SEQ ID No 3 and 4 matching the GL2 luciferase sequence, unspecific control (chain 1 CGUACGCGGAAUACUUCGATT; chain 2 TTGCAUGCGCCUUAUGAAGCU; chemistry not fully specified; one strand is listed 3' to 5') [reference compound]", "values": [{"measurement": "luciferase level with unrelated GL2Luc siRNA", "setting": "[1]; transfected with MONBI 1 mM/DOPE 2 mM in ethanol, same conditions", "value": "the luciferase level was not affected"}, {"measurement": "effect of unrelated GL2Luc siRNA on luciferase activity", "setting": "[1]; transfected with MONI/DOPE 1 mM/1 mM in ethanol, same conditions (100 to 2000 pM)", "value": "absence of effect on the luciferase activity"}, {"measurement": "luciferase inhibition with unrelated GL2Luc siRNA, reverse transfection", "setting": "[2]", "value": "absence of luciferase inhibition"}]}]}
